Patent publication US8536180B2, “Pyrimidine inhibitors of kinase activity” (AbbVie Inc., priority 2009, dated 2013)

Each compound was assayed against T1, C-terminal GST-tagged, recombinant, human IGF-1R, amino acids 954-1367 (Homo sapiens, UniProt P08069) (assay: IGF-1R homogenous time-resolved fluorescence (HTRF) in vitro kinase assay). Conditions: IGF-1R kinase, ATP 50 μM final, biotinylated peptide substrate 0.5 μM, 60 minutes at room temperature.
T1 construct: human IGF-1R, amino acids 954-1367 expressed by baculovirus in Sf21 cells; GST (C); purchased Cell Signaling Technology; host or cells: baculovirus in Sf21 cells
T1 sequence (P08069 954-1367): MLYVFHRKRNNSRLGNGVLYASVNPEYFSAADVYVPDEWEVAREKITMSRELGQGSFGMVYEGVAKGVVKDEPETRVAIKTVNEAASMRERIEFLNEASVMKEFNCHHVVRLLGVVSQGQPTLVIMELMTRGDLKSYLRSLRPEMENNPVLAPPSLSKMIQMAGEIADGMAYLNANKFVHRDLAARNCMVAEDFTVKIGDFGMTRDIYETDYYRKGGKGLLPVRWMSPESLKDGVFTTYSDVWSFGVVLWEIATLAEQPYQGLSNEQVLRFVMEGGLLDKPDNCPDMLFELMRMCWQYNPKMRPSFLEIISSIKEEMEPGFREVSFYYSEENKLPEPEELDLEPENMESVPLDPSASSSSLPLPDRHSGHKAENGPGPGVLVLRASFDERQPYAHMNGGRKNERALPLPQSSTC
Type: biochemical
Procedure: IGF-1R kinase activity was assayed by a homogenous time-resolved fluorescence (HTRF) in vitro kinase assay (Mathis, G., HTRF(R) Technology. J Biomol Screen, 1999. 4(6): p. 309-314). Specifically, 10 μL C-terminal GST-tagged, recombinant, human IGF-1R, amino acids 954-1367 expressed by baculovirus in Sf21 cells (Cell Signaling Technology) was mixed with 10 μL inhibitor (various concentrations, 2% final DMSO) and 10 μL of ATP (50 μM final concentration) in reaction buffer (50 mM HEPES, pH 7.5, 10 mM MgCl2, 2 mM MnCl2, 0.1% BSA and 1 mM DTT, 40 μL final volume). The reaction was initiated by addition of 10 μL of biotinylated peptide substrate (Biotin-Ahx-[…], 0.5 μM final concentration) in a black 384-well plate (Packard). After 60 minutes incubation at room temperature, the reaction was quenched by addition of 60 μL stop/revelation buffer to give 30 mM EDTA, 1 μg/mL streptavidin-APC (Prozyme), 50 ng/mL anti-phosphotyrosine mAb PT66-K Europium Cryptate, 30 mM HEPES, pH 7.5, 120 mM KF, 0.005% Tween-20, 0.05% BSA). The quenched reaction was allowed to stand at room temperature for 1 hour and then read in a time-resolved fluorescence detector (Envision, Perkin Elmer) at 615 nm and 665 nm simultaneously. The ratio between the signal of 615 nm and 665 nm was used in the calculation of the IC50.
COc1ccccc1Cc1nc2ccc(-c3nc4sccn4c3-c3ccnc(Nc4ccc(N5CCC(N(C)C)CC5)cc4OC)n3)cc2[nH]1 [Example 55, N-{4-[4-(dimethylamino)piperidin-1-yl]-2-methoxyphenyl}-4-{6-[2-(2-methoxybenzyl)-1H-benzimidazol-6-yl]imidazo[2,1-b][1,3]thiazol-5-yl}pyrimidin-2-amine] was tested, and the IC50 was less than 10 nM. COc1cc(N2CCC(N(C)C)CC2)ccc1Nc1nccc(-c2c(-c3ccc4nc(Cc5ccccc5C)[nH]c4c3)nc3sccn23)n1 [Example 56, N-{4-[4-(dimethylamino)piperidin-1-yl]-2-methoxyphenyl}-4-{6-[2-(2-methylbenzyl)-1H-benzimidazol-6-yl]imidazo[2,1-b][1,3]thiazol-5-yl}pyrimidin-2-amine] gave an IC50 of less than 10 nM. CN(C)Cc1ccc(Nc2nccc(-c3c(-c4ccc5nc(Cc6ccccc6)[nH]c5c4)nc4sccn34)n2)cc1 [Example 57, 4-[6-(2-benzyl-1H-benzimidazol-6-yl)imidazo[2,1-b][1,3]thiazol-5-yl]-N-{4-[(dimethylamino)methyl]phenyl}pyrimidin-2-amine] showed an IC50 of less than 10 nM. With CN(C)Cc1ccccc1Nc1nccc(-c2c(-c3ccc4nc(Cc5ccccc5)[nH]c4c3)nc3sccn23)n1 [Example 58, 4-[6-(2-benzyl-1H-benzimidazol-6-yl)imidazo[2,1-b][1,3]thiazol-5-yl]-N-{2-[(dimethylamino)methyl]phenyl}pyrimidin-2-amine] the IC50 was greater than 500 nM. Work on O=C1CCCN1c1cccc(Nc2nccc(-c3c[nH]nc3-c3ccc4[nH]c(Cc5ccccc5Cl)nc4c3)n2)c1 [Example 59, 1-{3-[(4-{3-[2-(2-chlorobenzyl)-1H-benzimidazol-5-yl]-1H-pyrazol-4-yl}pyrimidin-2-yl)amino]phenyl}pyrrolidin-2-one] yielded an IC50 of 101 to 500 nM. CCn1cc(-c2ccnc(Nc3cccc(CN(C)C)c3)n2)c(-c2ccc3[nH]c(Cc4ccccc4OC)nc3c2)n1 [Example 60, N-{3-[(dimethylamino)methyl]phenyl}-4-{1-ethyl-3-[2-(2-methoxybenzyl)-1H-benzimidazol-5-yl]-1H-pyrazol-4-yl}pyrimidin-2-amine] showed an IC50 of 10 to 50 nM. CCn1cc(-c2ccnc(Nc3cccc(CN(C)C)c3)n2)c(-c2ccc3[nH]c(Cc4ccccc4Cl)nc3c2)n1 [Example 61, 4-{3-[2-(2-chlorobenzyl)-1H-benzimidazol-5-yl]-1-ethyl-1H-pyrazol-4-yl}-N-{3-[(dimethylamino)methyl]phenyl}pyrimidin-2-amine] was tested, and the IC50 was 10 to 50 nM. CCn1cc(-c2ccnc(Nc3cccc(CN(C)C)c3)n2)c(-c2ccc3[nH]c(Nc4ccccc4)nc3c2)n1 [Example 62, 5-{4-[2-({3-[(dimethylamino)methyl]phenyl}amino)pyrimidin-4-yl]-1-ethyl-1H-pyrazol-3-yl}-N-phenyl-1H-benzimidazol-2-amine] gave an IC50 of 10 to 50 nM. CCn1cc(-c2ccnc(Nc3cccc(CN(C)C)c3)n2)c(-c2ccc3[nH]c(Cc4ccccc4)nc3c2)n1 [Example 63, 4-[3-(2-benzyl-1H-benzimidazol-5-yl)-1-ethyl-1H-pyrazol-4-yl]-N-{3-[(dimethylamino)methyl]phenyl}pyrimidin-2-amine] showed an IC50 of 10 to 50 nM. CCn1cc(-c2ccnc(Nc3ccccc3OC)n2)c(-c2ccc3[nH]c(Cc4ccccc4)nc3c2)n1 [Example 64, 4-[3-(2-benzyl-1H-benzimidazol-5-yl)-1-ethyl-1H-pyrazol-4-yl]-N-(2-methoxyphenyl)pyrimidin-2-amine] was tested, and the IC50 was 101 to 500 nM. With CCn1cc(-c2ccnc(Nc3ccccc3OC)n2)c(-c2ccc3[nH]c(Cc4ccccc4OC)nc3c2)n1 [Example 65, 4-{1-ethyl-3-[2-(2-methoxybenzyl)-1H-benzimidazol-5-yl]-1H-pyrazol-4-yl}-N-(2-methoxyphenyl)pyrimidin-2-amine] the IC50 was 101 to 500 nM. CCn1cc(-c2ccnc(Nc3ccc(N4CCC(N(C)C)CC4)cc3OC)n2)c(-c2ccc3[nH]c(Cc4ccccc4)nc3c2)n1 [Example 66, 4-[3-(2-benzyl-1H-benzimidazol-5-yl)-1-ethyl-1H-pyrazol-4-yl]-N-{-4-[4-(dimethylamino)piperidin-1-yl]-2-methoxyphenyl}pyrimidin-2-amine] was tested, and the IC50 was 10 to 50 nM. In the case of CCn1cc(-c2ccnc(Nc3ccc(N4CCC(N(C)C)CC4)cc3OC)n2)c(-c2ccc3[nH]c(Cc4ccccc4Cl)nc3c2)n1 [Example 67, 4-{3-[2-(2-chlorobenzyl)-1H-benzimidazol-5-yl]-1-ethyl-1H-pyrazol-4-yl}-N-{4-[4-(dimethylamino)piperidin-1-yl]-2-methoxyphenyl}pyrimidin-2-amine], the IC50 is reported as 51 to 100 nM. CCn1cc(-c2ccnc(Nc3ccc(N4CCC(N(C)C)CC4)cc3OC)n2)c(-c2ccc3[nH]c(Cc4ccccc4OC)nc3c2)n1 [Example 68, N-{4-[4-(dimethylamino)piperidin-1-yl]-2-methoxyphenyl}-4-{1-ethyl-3-[2-(2-methoxybenzyl)-1H-benzimidazol-5-yl]-1H-pyrazol-4-yl}pyrimidin-2-amine] showed an IC50 of 51 to 100 nM. For CCn1cc(-c2ccnc(Nc3ccc(N4CCC(N(C)C)CC4)cc3OC)n2)c(-c2ccc3[nH]c(-c4ccccc4)nc3c2)n1 [Example 69, N-{4-[4-(dimethylamino)piperidin-1-yl]-2-methoxyphenyl}-4-[1-ethyl-3-(2-phenyl-1H-benzimidazol-5-yl)-1H-pyrazol-4-yl]pyrimidin-2-amine], the IC50 was 101 to 500 nM.
